Reference: article PMC9508196 (Scientific Reports, 2022)
Values after ≈ are worked out from the molar mass of the structure shown. Non-standard residues stand in square brackets, D forms with d. Residues, ends and D or L forms follow the SMILES beside them. No end group written: not given here.

How the values were obtained:
[1] = tested on: human red blood cells (hRBCs); assay: Hemolysis assay; assay type: cell-based; settings: hRBCs, peptide 250 µg/mL, 1 h, 37 °C
Method: The hemolytic activity of peptides was determined as the amount of hemoglobin released from lysed human red blood cells (hRBCs) after treatment with peptide. Fresh hRBCs were collected from a healthy volunteer in polycarbonate tubes containing heparin. Then, the collected packed RBCs were washed at least three times (or until the supernatant was clear) with sterile phosphate-buffered saline pH 7.4 (PBS) and centrifuged at 2,000 × g for 5 min. The 2% (v/v) of washed hRBCs in PBS were incubated with serially diluted peptides (0.98 to 250 μg/ml) for 1 h at 37 °C. After centrifugation, the supernatants were monitored for optical density (OD) at 405 nm using a Multiskan FC Microplate Reader[21]. Values for 0% (negative control) and 100% (positive control) lysis were determined by incubating the hRBCs with PBS only (ODBlank) and 0.1% (v/v) Triton X-100 (ODTriton X-100), respectively. The experiments were performed in triplicate. The percent hemolysis was calculated according to the following equation: %Hemolysis=ODSample-ODBlank/ODTriton X-100-ODBlank×100

[2] = tested on: A. baumannii ATCC 19,606; assay: microbe, parasite or virus in culture; settings: 20 serial 24-h passages at half-MIC, MHB
Method: A. baumannii ATCC 19,606 was adjusted to approximately 10^6 CFU/ml in MHB. […] After 24 h incubation, bacterial suspensions of the wells at half-MIC concentration of tested agent were taken and washed 2 times with MHB to prepare the next initial-passage of bacteria. Twenty repeat passages were performed for each tested compound. Along with the test, a negative control was included: the MIC value of bacteria cultured in MHB-deionized water after 20 passages.

[3] = tested on: A. baumannii ATCC 19,606; assay: Peptide stability to proteolytic enzymes (MIC/MBC after pre-incubation); assay type: cell-based, Acinetobacter baumannii; settings: for MBC, control / MIC, control: control: absence of human plasma and proteolytic enzymes, A. baumannii ATCC 19,606; for MBC in the presence of pepsin / MIC in the presence of pepsin: peptide pre-incubated with 1 mg/ml pepsin
Method: (§1) Minimum inhibitory concentration (MIC) of peptides and antibiotics was assessed by a modified version of the broth microdilution method from the Clinical and Laboratory Standards Institute (CLSI) as previously described. In brief, mid-log phase growths of microbial strains were cultured in Müeller-Hinton broth (MHB) with an initial inoculum of 2–8 × 10^5 CFU/mL. Bacteria suspensions were incubated in sterile 96-well plates with test agents at desired concentrations. […] Minimum bactericidal concentration (MBC) determination was performed using a modified version of the colony count assay. In brief, fifty µl of all non-turbid wells from MIC experiments were spread on agar plates. The MBC value was defined as the lowest concentration of peptides with no colony growth on the plate. All assays were performed in triplicate.
(§2) The MIC and MBC assays were performed after peptide was exposed to various conditions, including proteolytic enzymes, serum salts and human plasma. […] To determine peptide sensitivity to physiological salts, approximately 5 × 10^5 CFU/ml of A. baumannii ATCC 19,606 was mixed with the MHB containing different physiological salts at final concentration as follows: 150 mM NaCl, 4.5 mM KCl, 1 mM MgCl2, 6 µM NH4Cl, 8 µM ZnCl2, 4 µM FeCl3 and […]. After treatment, the MIC was evaluated as described in 2.4. To test the stability of peptides in human plasma, peptide was mixed with pure human plasma, and the mixture was incubated for 1 h at 37 °C. Then, the mixture was two-fold serially diluted with sterile MHB. The peptides at final concentrations of 0.98 to 250 µg/ml were incubated with an equal volume of bacterial suspension at 37 °C for 24 h. MIC values were determined as described in 2.4.

[4] = tested on: A. baumannii ATCC 19,606; assay: Peptide stability in human plasma (MIC/MBC after pre-incubation); assay type: cell-based, Acinetobacter baumannii; settings: peptide mixed with pure human plasma, 1 h, 37 °C, then two-fold diluted in MHB, bacteria 24 h
Method: as §1, §2

[5] = tested on: Staphylococcus aureus ATCC 25,923; assay type: cell-based; settings: S. aureus ATCC 25,923; broth microdilution, MHB, 24 h, 37 °C, triplicate
Source text: (§3) Ten strains of both Gram-positive and -negative bacteria, including Staphylococcus aureus ATCC 25,923, S. epidermidis ATCC 12,228, Bacillus cereus ATCC 11,778, Listeria monocytogenes 10403S, Salmonella typhimurium ATCC 13,311, Pseudomonas aeruginosa ATCC 27,853, Shigella sonnei ATCC 11,060, A. baumannii ATCC 19,606, Escherichia coli ATCC 25,922 and E. coli O157:H7, were used in this study. Eight clinical isolates of multidrug-resistant (MDR) and extensively drug-resistant (XDR) A. baumannii, isolated from human (blood, sputum, respiratory sample, sterile site sample and urine), were kindly provided by Asst. Prof. Dr. Sakawrat Kanthawong (Faculty of Medicine, Khon Kaen University, Thailand) (Table S1). All bacterial strains, excluding L. monocytogenes 10403S and E. coli, were cultured in tryptic soy broth (TSB). L. monocytogenes was grown in TSB supplemented with 0.6% yeast extract (TSB-YE), and E. coli was cultured in Luria broth (LB). All of bacteria were cultured at 37 °C with continuous shaking at 220 rpm.
as §1

[6] = tested on: Pseudomonas aeruginosa ATCC 27,853; assay type: cell-based; settings: P. aeruginosa ATCC 27,853; broth microdilution, MHB, 24 h, 37 °C, triplicate
Source text: as §3, §1

[7] = tested on: Listeria monocytogenes 10403S; assay type: cell-based; settings: L. monocytogenes 10403S; broth microdilution, MHB, 24 h, 37 °C, triplicate
Source text: as §3, §1

[8] = tested on: Bacillus cereus ATCC 11,778; assay type: cell-based; settings: B. cereus ATCC 11,778; broth microdilution, MHB, 24 h, 37 °C, triplicate
Source text: as §3, §1

[9] = tested on: Escherichia coli ATCC 25,922; assay type: cell-based; settings: E. coli ATCC 25,922; broth microdilution, MHB, 24 h, 37 °C, triplicate
Source text: as §3, §1

[10] = tested on: Shigella sonnei ATCC 11,060; assay type: cell-based; settings: S. sonnei ATCC 11,060; broth microdilution, MHB, 24 h, 37 °C, triplicate
Source text: as §3, §1

[11] = tested on: Escherichia coli O157:H7 MT strain; assay type: cell-based; settings: E. coli O157:H7 MT strain; broth microdilution, MHB, 24 h, 37 °C, triplicate
Source text: as §3, §1

[12] = tested on: Staphylococcus epidermidis ATCC 12,228; assay type: cell-based; settings: S. epidermidis ATCC 12,228; broth microdilution, MHB, 24 h, 37 °C, triplicate
Source text: as §3, §1

[13] = peptide pre-incubated with 1 mg/ml proteinase K, 37 °C, 1 h
[14] = peptide pre-incubated with 1 mg/ml trypsin, 37 °C, 1 h

Compound	Hemolysis [1]	MIC after 20 passages [2]	MBC, control [3]	MIC, control [3]	MBC in the presence of pepsin ([3]; 37 °C, 1 h)	MIC in the presence of pepsin ([3]; 37 °C, 1 h)	MBC in the presence of proteinase K [3, 13]	MIC in the presence of proteinase K [3, 13]	MBC in the presence of trypsin [3, 14]	MIC in the presence of trypsin [3, 14]	MBC in the presence of human plasma [4]	MIC in the presence of human plasma [4]	MIC [5]	MIC [6]	MIC [7]	MIC [8]	MIC [9]	MIC [10]	MIC [11]	MIC [12]
CC[C@@H](C)[C@@H](NC(=O)[C@@H](CCCCN)NC(=O)CNC(=O)[C@@H](C)NC(=O)[C@H](NC(=O)[C@@H](CCCCN)NC(=O)[C@@H](CCCCN)NC(=O)[C@H](NC(=O)[C@@H](CCCNC(=N)N)NC(=O)[C@@H](CCCNC(=N)N)NC(=O)[C@@H](Cc1ccccc1)NC(=O)[C@@H](CC(C)C)NC(=O)[C@H](N)CCCNC(=N)N)C(C)C)C(C)C)C(=O)N[C@H](C)C(=O)N[C@H](CCCCN)C(=O)N[C@H](CCCNC(=N)N)C(=O)N[C@@H](C(=O)N[C@H](Cc1c[nH]c2ccccc12)C(=O)N[C@H](CCCCN)C(N)=O)[C@H](C)CC [D-AP19] (H-[dR][dL][dF][dR][dR][dV][dK][dK][dV][dA]G[dK][dI][dA][dK][dR][dI][dW][dK]-NH2)	3.28%	7.81 µg/mL (≈ 3.32 µM)	7.81(7.81) µg/ml	7.81(7.81) µg/ml	15.63(15.63) µg/ml	15.63(15.63) µg/ml	7.81(7.81) µg/ml	7.81(7.81) µg/ml	7.81(7.81) µg/ml	7.81(7.81) µg/ml	31.25(31.25) µg/ml	31.25(31.25) µg/ml	–	–	–	–	–	–	–	–
RLFRRVKKVAGKIAKRIWK-NH2 [AP19]	7.25%	–	7.81(7.81) µg/ml	7.81(7.81) µg/ml	31.25(31.25) µg/ml	31.25(31.25) µg/ml	–	–	–	–	250(250) µg/ml	250(250) µg/ml	7.81 µg/mL	3.91 µg/mL	3.91 µg/mL	7.81 µg/mL	3.91 µg/mL	3.91 µg/mL	15.63 µg/mL	1.95 µg/mL
